# Source: paper PMC5516944 (Structure (London, England : 1993), 2017)
# T1: hATL1 (Homo sapiens, UniProt Q8WXF7)
# T1 sequence (Q8WXF7 1-446): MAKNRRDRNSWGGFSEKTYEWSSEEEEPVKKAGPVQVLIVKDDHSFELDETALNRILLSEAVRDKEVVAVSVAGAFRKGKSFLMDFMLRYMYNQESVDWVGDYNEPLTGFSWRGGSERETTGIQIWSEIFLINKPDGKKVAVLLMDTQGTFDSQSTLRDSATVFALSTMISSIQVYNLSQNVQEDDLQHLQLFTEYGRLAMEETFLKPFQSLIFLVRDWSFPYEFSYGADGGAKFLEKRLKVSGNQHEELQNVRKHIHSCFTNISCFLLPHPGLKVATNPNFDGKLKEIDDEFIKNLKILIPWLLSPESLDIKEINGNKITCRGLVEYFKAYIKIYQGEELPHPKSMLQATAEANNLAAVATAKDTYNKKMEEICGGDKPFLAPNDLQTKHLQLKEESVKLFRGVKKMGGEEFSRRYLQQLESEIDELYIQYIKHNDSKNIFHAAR
# T2: hATL3 (Homo sapiens, UniProt Q6DD88)
# T2 sequence (Q6DD88 1-442): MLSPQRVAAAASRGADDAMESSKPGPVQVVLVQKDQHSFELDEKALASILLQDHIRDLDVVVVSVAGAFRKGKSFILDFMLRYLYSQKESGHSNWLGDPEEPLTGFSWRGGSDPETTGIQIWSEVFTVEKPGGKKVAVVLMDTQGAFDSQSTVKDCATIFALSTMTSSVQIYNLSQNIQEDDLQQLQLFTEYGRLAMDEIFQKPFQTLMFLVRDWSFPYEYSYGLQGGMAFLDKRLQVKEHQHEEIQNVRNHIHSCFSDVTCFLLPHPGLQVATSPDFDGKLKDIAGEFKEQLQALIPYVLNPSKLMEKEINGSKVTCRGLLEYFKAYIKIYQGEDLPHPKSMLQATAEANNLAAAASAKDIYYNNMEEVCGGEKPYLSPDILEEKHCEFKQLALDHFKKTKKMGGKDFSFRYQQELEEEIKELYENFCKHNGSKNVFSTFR
# B1: human atlastin 1 (hATL1) catalytic core fragment, G and middle domains (1–446) (domain or fragment, UniProt Q8WXF7 1-446, looked up)
# chain: T1 sequence (Q8WXF7 1-446)
# B2: human atlastin 3 (hATL3) catalytic core fragment, G and middle domains (1–442) (domain or fragment, UniProt Q6DD88 1-442, looked up)
# chain: T2 sequence (Q6DD88 1-442)
# What was measured:
# [1] = molecular target: T1, hATL1; test: SEC-MALS, nucleotide-induced dimerisation; assay type: binding; settings: 1 mM nucleotide; 40 μM protein; pH 7.5; 4 mM MgCl2
# [2] = molecular target: T2, hATL3; test: SEC-MALS, nucleotide-induced dimerisation; assay type: binding; settings: 1 mM nucleotide; 40 μM protein; pH 7.5; 4 mM MgCl2
# [3] = molecular target: the molecule itself; test: SEC-MALS
Molecule,"SEC-MALS, nucleotide-induced dimerisation [1]","SEC-MALS, nucleotide-induced dimerisation [2]",stoichiometry N [3]
Nc1nc2c(ncn2[C@@H]2O[C@H](COP(=O)(O)OP(=O)(O)NP(=O)(O)O)[C@@H](O)[C@H]2O)c(=O)[nH]1 [GppNHp],dimeric ATLs are found when bound to GppNHp and GDP•AlFx,dimeric ATLs are found when bound to GppNHp and GDP•AlFx,
B1,,,2
B2,,,2
